# Values quoted from earlier work in US7985733B1, “Buffer-based method for preparing bivalirudin drug product” (The Medicines Company, priority 2010, dated 2011).
# Columns and labels:
# [1] = 25° C.
# [2] = statement of CN 101244043
# [3] = pH at which the molecule carries no net charge
compound,measurement,setting,value
Maleate,pKa (pK1),[1],2.0
same,pKa (pK2),[1],6.2
"CC[C@H](C)[C@H](NC(=O)[C@H](CCC(=O)O)NC(=O)[C@H](CCC(=O)O)NC(=O)[C@H](Cc1ccccc1)NC(=O)[C@H](CC(=O)O)NC(=O)CNC(=O)[C@H](CC(N)=O)NC(=O)CNC(=O)CNC(=O)CNC(=O)CNC(=O)[C@@H]1CCCN1C(=O)[C@H](CCCNC(=N)N)NC(=O)[C@@H]1CCCN1C(=O)[C@H](N)Cc1ccccc1)C(=O)N1CCC[C@H]1C(=O)N[C@@H](CCC(=O)O)C(=O)N[C@@H](CCC(=O)O)C(=O)N[C@@H](Cc1ccc(O)cc1)C(=O)N[C@@H](CC(C)C)C(=O)O [bivalirudin, D-Phenylalanyl-L-Prolyl-L-Arginyl-L-Prolyl-Glycyl-Glycyl-Glycyl-Glycyl-L-Asparagyl-Glycyl-L-Aspartyl-L-Phenylalanyl-L-Glutamyl-L-Glutamyl-L-Isoleucyl-L-Prolyl-L-Glutamyl-L-Glutamyl-L-Tyrosyl-L-Leucine]",solubility in water,[2],easily soluble in water
same,isoelectric point (pI),[3],about 3.6
"O=S(=O)(O)CCN1CCN(CCS(=O)(=O)O)CC1 [Piperazine-1,4-bis(2-ethanesulfonic acid)]",pKa,[1],6.8
